Laboratory results from US20180244653A1, “SELECTIVE ALPHA-7 NICOTINIC RECEPTOR AGONISTS AND METHODS FOR MAKING AND USING THEM” (THE REGENTS OF THE UNIVERSITY OF CALIFORNIA, priority 2015, published 2018).
Several values for one entry are separate records, joined by “and”; a condition that tells them apart may be missing. Identical values can stand only once. Entries after “also recorded” stand apart in the source; their conditions may differ. Like-named read-outs stand apart in the source and are kept apart here.

What was measured:
[1] = target: T1, 5HT3A receptors (Mus musculus, UniProt P23979); assay: Intact cell competitive radioligand binding assay ([3H]-granisetron, SPA), LGIC-CNiFERs; conditions: >10 = did not pass initial screen at 10 μM
T1 construct: expressed in transfected cells; host or cells: HEK293 cells co-expressing TN-XXL
T1 sequence (P23979 24-489): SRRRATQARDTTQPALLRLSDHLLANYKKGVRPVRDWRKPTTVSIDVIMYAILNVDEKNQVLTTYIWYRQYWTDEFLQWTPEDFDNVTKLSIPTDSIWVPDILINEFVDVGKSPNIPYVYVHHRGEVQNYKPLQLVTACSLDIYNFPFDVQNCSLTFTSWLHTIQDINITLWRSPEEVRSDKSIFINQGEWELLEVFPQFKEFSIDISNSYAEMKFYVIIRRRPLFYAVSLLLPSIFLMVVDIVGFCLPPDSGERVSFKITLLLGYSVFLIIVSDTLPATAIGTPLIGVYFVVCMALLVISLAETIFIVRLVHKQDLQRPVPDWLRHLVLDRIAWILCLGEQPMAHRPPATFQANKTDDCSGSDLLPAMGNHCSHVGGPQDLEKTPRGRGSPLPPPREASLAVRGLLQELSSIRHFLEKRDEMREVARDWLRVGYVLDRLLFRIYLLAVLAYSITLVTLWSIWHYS

[2] = target: T1, 5HT3A receptors; assay: FRET functional assay (agonist/antagonist) using LGIC-CNiFERs; format: cell-based; conditions: for Kd / Antagonist KA ± SD, 5HT3A: competitive antagonist (^C), vs 5-HT; for Kd: read-out: Antagonist KA ± SD, 5HT3A; for Functional properties at 5HT3A receptors (agonist / antagonist, type): functional screening and characterization; for EC50: read-out: Agonist EC50 ± SD, 5HT3A
Procedure: (§1) Initially, the agonist properties of tested compounds were assessed directly. […] All α7-nAChR functional assays were performed in the presence of PNU-120596, an α7-nAChR positive allosteric modulator (PAM), to increase signal and delay the sensitization state of α7-nAChRs enabling the measurement of more prolonged FRET signals.^29 Compounds having agonist responses of >0.20 were determined for EC50, and compounds having inhibition fraction of >0.50 were determined for KA.^25 EC50>13.3 μM and KA>10 μM which are a screening concentration for agonist and antagonist, respectively were reported compounds not taken for further in the screening of receptor occupation and responses.
(§2) Agonist and antagonist elicited responses were characterized using the above CNiFER cell expressing Cys-loop ligand-gated ion channel (LGIC) receptors. […] A 96-well black, clear-bottom microplate (Greiner bio-one, Germany) was coated with poly-D-lysine (Sigma-Aldrich, St. Louis, Mo.) 50 μL/well for 30 min and washed out with Phosphate-Buffered Saline (PBS) (Corning, Cellgro, Manassas, Va.) before plating the cells. After plating and incubation at 37° C. for 1 day, the media was replaced with 100 μL of artificial cerebrospinal fluid (aCSF: 121 mM NaCl, 5 mM KCl, 26 mM NaHCO3, 1.2 mM NaH2PO4H2O, 10 mM glucose, 2.4 mM CaCl2, 1.3 mM MgSO4, 5 mM HEPES, pH 7.4) for 4032 and 5HT3A receptors, whereas 10 μM PNU-120596 (Tocris Bioscience, Bristol, UK) in aCSF with 30 min incubation at 37° C. was used for α7-nAChR. The tested compounds were prepared in aCSF for all receptors except α7-nAChR, where 10 μM PNU-120596, a positive allosteric modulator (PAM) was used. The prepared compounds were added in a separate 96-well polypropylene plate (Costar, Corning, N.Y.). Experiments were conducted at 37° C. using 436-nm excitation. Emitted light was collected at 485 nm and 528 nm. Basal fluorescence was recorded for 30 s, followed by addition of 50 μL of ligand (first addition). Measurements were made at 3.84 s intervals for 2 min to measure the agonistic effect. […] Agonist and antagonist properties were sequentially screened at the final concentration of 13.3 and 10 μM, respectively, which differed from the screening concentration from intact cell binding assay (10 μM).

[3] = target: T2, α4β2-nAChRs (Homo sapiens, UniProt P17787+P43681); assay: as above; format: cell-based; conditions: for Functional properties at α4β2-nAChRs (agonist / antagonist, type): functional screening and characterization; for Antagonist KA ± SD, α4β2, non-competitive: non-competitive antagonist (^NC)
T2 construct: expressed in transfected cells; host or cells: HEKtsA201 cells co-expressing TN-XXL
Procedure: as §1, §2

[4] = target: T3, α7-nAChRs (Homo sapiens, UniProt P36544); assay: as above; format: cell-based; conditions: for EC50: in presence of 10 μM PNU-120596, * partial agonist, read-out: Agonist EC50 ± SD, α7
T3 construct: expressed in transfected cells; host or cells: HEKtsA201 cells co-expressing TN-XXL
Procedure: as §1, §2

[5] = target: α7/5HT3A chimera receptor (hα7/m5HT3A), used for α7-nAChRs (UniProt P23979+P36544, M226I/T225I); assay: Intact cell competitive radioligand binding assay ([3H]-(±)-epibatidine, SPA), LGIC-CNiFERs; conditions: read-out: Kd ± SD, α7-nAChRs; >10 = did not pass initial screen at 10 μM
[6] = >10 = did not pass initial screen
[7] = read-out: Antagonist KA ± SD, α4β2
[8] = non-competitive antagonist (^NC)
[9] = competitive antagonist (^C), >10 = did not pass initial screen, vs (±)-epibatidine
[10] = competitive antagonist (^C), >10 = did not pass initial screen, vs (±)-epibatidine, read-out: Antagonist KA ± SD, α4β2
[11] = * partial agonist, >10 = did not pass initial screen

c1cc2cc(-c3cn(CCN4CCCCC4)nn3)ccc2[nH]1 [IND1, 5-(1-(2-(Piperidin-1-yl)ethyl)-1H-1,2,3-triazol-4-yl)-1H-indole]
Kd ([1]; read-out: Kd ± SD, 5HT3A): 5.52 µM
Kd [2, 6]: > 10 µM
Functional properties at 5HT3A receptors (agonist / antagonist, type) [2]: agonist and antagonist responses were not observed
EC50 [2]: > 10 µM
Kd [3, 7]: > 10 µM
Fold increase in α7-nAChR agonist potency over lead compound TTIn-1 [4]: 3.5 fold
EC50 [4, 6]: 0.17 µM

c1cc2cc(-c3cn(CCCN4CCCCC4)nn3)ccc2[nH]1 [IND2, 5-(1-(3-(Piperidin-1-yl)propyl)-1H-1,2,3-triazol-4-yl)-1H-indole]
Functional properties at 5HT3A receptors (agonist / antagonist, type) [2]: agonist and antagonist responses were not observed
EC50 [4, 6]: 2.2 µM
Kd [5]: 7.2 µM

c1cc2cc(-c3cn(CCCCN4CCCCC4)nn3)ccc2[nH]1 [IND3, 5-(1-(4-(Piperidin-1-yl)butyl)-1H-1,2,3-triazol-4-yl)-1H-indole]
EC50 [4, 6]: 0.91 µM
Kd [5]: 13.8 µM

CN1[C@@H]2CCC[C@H]1CC(n1cc(-c3ccc4[nH]ccc4c3)nn1)C2 (stereo partly drawn) [IND7, 5-(1-((1R,5S)-9-Methyl-9-azabicyclo[3.3.1]nonan-3-yl)-1H-1,2,3-triazol-4-yl)-1H-indole]
Functional properties at 5HT3A receptors (agonist / antagonist, type) [2]: agonist and antagonist responses were not observed
Functional properties at α4β2-nAChRs (agonist / antagonist, type) [3]: weak antagonistic properties
Kd ([3]; read-out: Antagonist KA ± SD, α4β2, non-competitive): 22.2 µM
Kd [5]: 4.52 µM

CN1CCCC(n2cc(-c3ccc4[nH]ccc4c3)nn2)C1 (centres unmarked) [IND11, 5-(1-(1-Methylpiperidin-3-yl)-1H-1,2,3-triazol-4-yl)-1H-indole]
EC50 [4, 6]: 3.3 µM
Kd [5]: 5.07 µM

CN(C)CCn1cc(-c2ccc3[nH]ccc3c2)nn1 [IND12, 5-(1-(2-(N,N-Dimethylamino)ethyl)-1H-1,2,3-triazol-4-yl)-1H-indole]
Functional properties at 5HT3A receptors (agonist / antagonist, type) [2]: mix-competitive antagonist
EC50 [4, 6]: 5.74 µM
Kd [5]: 7.68 µM

c1cc2cc(-c3cn(CCN4CCCC4)nn3)ccc2[nH]1 [IND13, 5-(1-(2-(Pyrrolidin-1-yl)ethyl)-1H-1,2,3-triazol-4-yl)-1H-indole]
EC50 [4, 6]: 2.17 µM
Kd [5]: 4.84 µM

O=Cc1c[nH]c2ccc(-c3cn(CCN4CCCCC4)nn3)cc12 [PPRD5, 5-((1-(2-Piperidin-1-yl)ethyl)-1,2,3-triazol-4-yl)-indole-3-carbaldehyde]
Kd [2, 6]: > 10 µM
EC50 [2]: > 10 µM
Kd [3, 7]: > 10 µM
EC50 [4, 6]: 1.05 ± 0.17 µM
Kd [5]: 3.27 µM

Cn1ccc2cc(-c3cn(CCN4CCCCC4)nn3)ccc21 [PPRD9, 1-(2-((1-Methyl-5-indolyl)-1,2,3-triazol-1-yl)ethyl)piperidine]
Antagonist KA ± SD, 5HT3A [2, 6]: 15.1 ± 4.0^C, μM
Functional properties at 5HT3A receptors (agonist / antagonist, type) [2]: mixed (competitive,non-competive) antagonist
Antagonist KA ± SD, 5HT3A, non-competitive [2, 8]: 56.0 ± 31.0^NC μM
Antagonist KA ± SD, α4β2 [3, 9]: 10.5 ± 3.1^C,^ μM
Functional properties at α4β2-nAChRs (agonist / antagonist, type) [3]: α4β2-nAChR antagonists; also recorded: mix-competitive antagonist
Antagonist KA ± SD, α4β2, non-competitive [3]: 25.5 ± 12.8^NC μM
EC50 [4, 6]: 12.9 µM
Kd [5]: 12.1 µM

c1ccc2c(-c3cn(CCN4CCCCC4)nn3)c[nH]c2c1 [PPRD12]
Kd ([1]; read-out: Kd ± SD, 5HT3A): 2.55 µM and 2.6 µM
Antagonist KA ± SD, 5HT3A [2, 6]: 2.1 ± 0.3^C μM
Functional properties at 5HT3A receptors (agonist / antagonist, type) [2]: competitive antagonist
Kd [3, 10]: >10 µM
Antagonist KA ± SD, α7 [4, 9]: 4.5 ± 1.5^C, μM
Functional properties at α7-nAChRs (agonist / antagonist) ([4]; functional screening and characterization): weak and non-selective α7-nAChR antagonists
Antagonist KA ± SD, α7, non-competitive [4, 8]: 11.3 ± 4.5^NC μM

COC(=O)c1cc(-c2cn(CCN3CCCCC3)nn2)ccc1O [PPRD14, Methyl 2-hydroxy-5-(1-(2-(piperidin-1-yl)ethyl)-1,2,3-triazol-4-yl)benzoate]
Kd [2, 6]: 1.44 µM and 1.4 µM
Functional properties at 5HT3A receptors (agonist / antagonist, type) [2]: competitive antagonist
Kd [3, 7]: > 10 µM
Kd ([4]; competitive antagonist (^C), >10 = did not pass initial screen, vs (±)-epibatidine, read-out: Antagonist KA ± SD, α7): > 10 µM
EC50 [4, 6]: > 10 µM
Kd [5]: > 10 µM

COC(=O)c1cc(-c2cn(CCN3CCCCC3)nn2)ccc1N [PPRD15, Methyl 2-amino-5-(1-(2-(piperidin-1-yl)ethyl)-1,2,3-triazol-4-yl)benzoate]
Kd [2, 6]: 6 µM
Functional properties at 5HT3A receptors (agonist / antagonist, type) [2]: competitive antagonist
Kd [3, 7]: > 10 µM
EC50 [4, 6]: 3.1 µM
Kd [5]: 4.4 µM

c1cc2c(cc1-c1cn(C3CN4CCC3CC4)nn1)OCO2 (centres unmarked) [QND1, 3-(4-(Benzo-1,3-dioxol-5-yl)-1,2,3-triazol-1-yl)quinuclidine]
Kd ([1]; Kd ± SD, 5HT3A): 0.02 to 0.05 µM
EC50 [2]: 0.3 ± 0.04 µM
Kd ([3]; Antagonist KA ± SD, α4β2, competitive antagonist (^C), >10 = did not pass initial screen, vs (±)-epibatidine): > 10 µM
EC50 [4, 6]: 0.12 ± 0.04 µM
Kd [5]: 0.16 µM

Nc1ccc(-c2cn(C3CN4CCC3CC4)nn2)cc1 (centres unmarked) [QND2, 3-(4-Aminophenyl-1,2,3-triazol-1-yl)quinuclidine]
Kd ([1]; read-out: Kd ± SD, 5HT3A): 1.21 µM
EC50 [2, 11]: 1.63 ± 0.29 µM
Functional properties at 5HT3A receptors (agonist / antagonist, type) [2]: 5HT3A receptor agonist properties
Kd [3, 10]: >10 µM
Fold increase in α7-nAChR agonist potency over lead compound TTIn-1 [4]: 20 fold
EC50 [4, 6]: 0.05 µM

Clc1ccc(-c2cn(C3CN4CCC3CC4)nn2)cc1 (centres unmarked) [QND13, 3-(4-chlorophenyl-1,2,3-triazol-1-yl)quinuclidine]
EC50 [2, 11]: 4.9 ± 1.2 µM
Functional properties at 5HT3A receptors (agonist / antagonist, type) [2]: 5HT3A receptor agonist properties
Antagonist KA ± SD, α4β2 [3, 9]: 11.2 ± 2.6^C, μM
Functional properties at α4β2-nAChRs (agonist / antagonist, type) [3]: mix-competitive antagonist
Antagonist KA ± SD, α4β2, non-competitive [3]: 23 ± 6^NC μM
EC50 [4, 6]: 1.01 µM
